# Experimental data taken from US20250082646A1, “OVARIAN ANTI-AGING PHARMACEUTICAL COMPOSITION AND USE THEREOF” (priority 2022, published 2025).
# How the values were obtained:
# [1] = test system: mouse ovaries stimulated with PMSG; assay: Histology (hematoxylin and eosin) of ovaries after PMSG stimulation in vivo: number of ovarian follicles; conditions: treated ovaries compared to the ovaries of the control; after hormonal stimulation; FIG. 1A
# Protocol: In this experiment, as a control, young mice (7 to 9 weeks old, n=15), and as an experimental group, old mice (55 to 60 weeks old, n=30) were prepared. In the drawing, the experimental results of the young mice are indicated as ‘Young,’ and the experimental results of the old mice are indicated as ‘Old.’
# (§1) For in vivo hormone stimulation, the old mice were treated with the Example compound, and 12 hours later, 75 IU pregnant mare serum gonadotropin (PMSG: RP1782725000; BioVendor, Czech Republic) was injected into the mice. A control is a group administered only 751U PMSG. Female mice were superovulated by injecting hormones intraperitoneally at intervals of 48 hours. The administered hormones were PMSG (7.5 IU) and human chorionic gonadotropin (hCG: 668900221; LG Chem. Seoul, Korea: 7.5 IU). After secondary hormone treatment, female mice were mated with male mice (2:1 or 1:1). Modified pronuclear cells (2PNs) were obtained 24 hours after hCG injection.
# In Experimental Example 1, the effect of treatment with Example Compound on mouse ovaries stimulated with PMSG in vivo was evaluated. Light microscopy imaging was performed on the ovaries of young mice, and old mice treated and not treated with Example Compound.
# Each sample was fixed with 4% paraformaldehyde at room temperature for 30 minutes, and the fixed tissue was washed with PBS and embedded in paraffin with a thickness of 5 μm. […]
# old ovaries (GV oocytes) = assay: Number of GV oocytes collected from ovaries after superovulation; format: in vivo, mouse; conditions: old ovaries treated vs old ovaries not treated; FIGS. 1B and 1C
# Protocol: Female mice (young mice: 7-8 weeks old; old mice: 40 weeks or older) were superovulated by intraperitoneally injecting pregnant mare serum gonadotropin (PMSG: G4527, Sigma Aldrich: 7.5 IU). Germinal vesicle (GV) oocytes were collected from the ovaries 48 hours after PMSG injection. For zygotes, female mice were injected with PMSG, and 48 hours later, injected with hCG, and then placed overnight with BDF1 stud male mice, which were approximately 10 to 12 weeks old. The next day, plugs of the female mice were examined, and zygotes and two-cell embryos were collected from the oviducts 18 to 20 hours and 36 hours after hCG injection, respectively.
# After inducing superovulation, the numbers of GV oocytes in the ovaries of the old mice and young mice treated with Example Compound were evaluated.
# The measurement of the number of GV oocytes was performed by collecting mouse eggs from each group (the number of eggs of young mice: 15: the number of eggs of old mice: 30; and the number of eggs of old mice treated with Example Compound: 30), physically chopping the eggs to collect ovarian follicles, and isolating GV oocytes in the ovarian follicles to count the number of cells.
# [2] = test system: fertilized 2PN embryos of old mice; assay: Pre-implantation development of fertilized 2PN embryos from treated old mice; format: in vivo, mouse
# Protocol: as §1
# In Experimental Example 2, the effect of fertilized 2PN embryo development on the ovaries of the old mice treated with Example Compound was evaluated.
# 27 pronuclear cells of the old mice (n=15) treated with Example Compound and 62 pronuclear cells of the old mice (n=15) not treated with Example Compound as a control were cultured. Afterward, the number of cells at each of 2-cell, 4-cell, 8-cell, morula, early blastocyst, and late blastocyst stages was measured using a microscope, and expressed as a percentage.
# ovaries of old mice = assay: Ovarian gene expression pattern by next generation sequencing (mRNA sequencing); format: in vivo, mouse; conditions: NGS; genes increased in the old group
# Protocol: A major change in gene expression caused by treatment with Example Compound was confirmed through next generation sequencing (NGS).
# mRNA sequencing was performed according to References. RNA was extracted using a TRIzol (15596026. Thermo Fisher) solution. Sequencing libraries were prepared according to the manufacturer's instructions using the TruSeq Stranded mRNA LT Sample Prep Kit (Illumina). Paired end 101 bp sequencing was performed using the Illumina platform (NovaSeq 6000, Illumina). The results of two experiments were obtained for each group.
# According to the criteria (1st trimming, base quality<3, window size=4, mean quality=15; 2nd trimming: min length=36 bp), paired end read data was trimmed using Trimmomatic (Bolger et al., 2014). Using the HISAT2 program (Kim et al., 2019; Nat Biotechnol 37, 907-915, 2019), trimmed reads were mapped to the UCSC genome database. Also, the mapping results were quantified using StringTie (Pertea et al., 2015; Nat Biotechnol. 2015 March; 33(3): 290-295) and gene/transcript-based annotations (NCBI Annotation Release 108).
# Differential expression gene analysis was performed using DESeq2 according to the criteria (baseMean counts>14, false discover rate (FDR)<0.1, and log 2FoldChange>1). […]
# [3] = test system: Ptpn6, Fcer1g, Tyrobp, Slamf9, Clec4a3 mRNA; assay: RT-qPCR of immune system regulatory genes (tumor necrosis factor superfamily cytokine production) in ovaries; format: in vivo, mouse; conditions: old experimental group treated, FIG. 3B
# Protocol: In this experiment, a change in the expression of immune system regulatory genes (genes involved with tumor necrosis factor superfamily cytokine production) was quantitatively evaluated using real-time quantitative PCR (RT-qPCR) according to the treatment of aged models with Example Compound.
# RT-qPCR was performed on each ovary using the TRIzol protocol, total RNA was extracted from a lysate using the RNeasy mini kit (Qiagen Ltd.), and the extracted total RNA was reverse-transcribed using a Superscript kit (Invitrogen) containing a random hexamer to synthesize cDNA.
# Gene expression levels were confirmed using primers and the SsoAdvanced Universal SYBR Green Supermix (Bio-Rad. US) in the CFX96 Touch Real-Time PCR detection system (Bio Rad, US).
# For each gene tested, a comparative threshold cycle (CT) method that normalizes the accumulated PCR product to the reference gene beta-actin was used, and repeated three times.
# The PCR product was loaded on a 2% agarose gel and stained with Safeview™ (Applied Biological Materials. Richmond, Canada), and the gel was visualized under UV light using a gel documentation system (WSE-6100 LuminoGraph; ATTO, Tokyo, Japan), and the product bands were analyzed by the analysis of intensity ratios using ImageJ software.
# [4] = test system: longevity-related genes, steroidogenesis-related genes, primordial follicle factors, ovarian function factors; assay: RT-PCR of ovarian function-related genes in ovaries of old mice; format: in vivo, mouse
# Text: The expression of ovarian function-related genes in the ovaries of old mice treated with Example Compound was confirmed by reverse transcription-polymerase chain reaction (RT-PCR).
# mRNA was extracted from oocytes using a TRIzol (TRIzol RNA, 15596026, Thermo Fisher) solution and subjected to RT-PCR. The PCR product was stained with SafeView™ (Applied Biological Materials, Richmond, Canada) and loaded on a 2% agarose gel. Additionally, the gel was visualized under UV light using a gel documentation system (WSE-6100 LuminoGraph; ATTO, Tokyo, Japan). The intensity ratios of the product bands were analyzed using the ImageJ software program.
# The expression of primordial follicle factors, such as Nanog, Oct3/4, and p63, and ovarian function factors, such as AMH and BMP15, in the ovaries of the mice treated with Example Compound were analyzed by RT-PCR.
# In FIGS. 4A and 4B, “Young” indicates a young mouse, “Old” indicates an old mouse, and “Old+Compound 1” indicates an old mouse treated with Example Compound.
# In FIG. 4A, the upper left box indicates longevity-related genes, the lower left box indicates steroidogenesis-related genes, the upper right box indicates primordial follicle factors, and the lower right box indicates ovarian function factors.
# [5] = old mice treated, 27 pronuclear cells cultured
# [6] = old mice treated vs old mice not treated
structure (smiles),measurement,setting,value
"O=S1(=O)CCN(Cc2cc(NC3CCOCC3)c3[nH]c(-c4ccccc4)cc3c2)CC1 [Example Compound, 5-[(1,1-dioxido-4-thiomorpholinyl)methyl]-2-phenyl-N-(tetrahydro-2H-pyran-4-yl)-1H-indol-7-amine]","total number of ovarian follicles, including preantral follicles and antral follicles",[1],significantly higher
same,total number of oocytes collected at the GV stage,old ovaries (GV oocytes),significantly higher
same,embryo development rate higher than that of the control embryo,"[2]; at the morula, early blastocyst, and late blastocyst stages, old mice, FIG. 2",20%
same,early blastocyst rate,[2]; [5],51.85%
same,embryo development rate at the morula stage,[2]; [5],55.56%
same,late blastocyst rate,[2]; [5],51.85%
same,"expression of Fcerlg, Slamf9, Clec4a3, Ptpn6, Tyrobp, Adipoq, Bcl3, Trem2, and Sash3 (TNF superfamily cytokine production DEGs)",ovaries of old mice,down-regulated
same,"mRNA expression levels of Ptpn6, Fcerlg, Tyrobp, Slamf9, and Clec4a3",[3],lowered to levels similar to those of the young control
same,expression levels of SOD2 and SIRT1 (longevity-related genes),[4]; [6],higher
same,"expression levels of steroid production-related genes Edn2, Tbxa2r, Oxtr, and Adra1d",[4]; [6],significantly increased
same,"mRNA expression of Oct3/4, Nanog, p63, Lhcgr, AMH, GDF9, BMP15, and Kid","[4]; treated vs control not treated, FIGS. 4A and 4B",significantly higher
